According to PubChem BioAssay AID330 (DTP/NCI, 2004):
Several values for one entry are separate records, joined by “and”; a condition that tells them apart may be missing. Identical values can stand only once. Inconclusive results and toxic doses are left out. How the source made its calls: active means survival T/C of 150% or more; inactive means T/C below 125% in these data.

Test system: P388 leukemia ip, CD2F1 mice, survival T/C
Assay: NCI In Vivo Anticancer Drug Screen. Data for tumor model P388 Leukemia (intraperitoneal) in CD2F1 (CDF1) mice
Details: endpoint: median survival time, higher = longer survival
In short: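 Mice carrying the transplanted tumor received test compound or vehicle. Survival was recorded in each group, and the value is the treated-group measurement divided by that of the vehicle-treated control group.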

[1] = dose: 25.0 mg/kg/injection, schedule: Q01DX009 (ip), vehicle: distilled water + Tween-80
[2] = dose: 50.0 mg/kg/injection, schedule: Q01DX009 (ip), vehicle: distilled water + Tween-80
[3] = dose: 100.0 mg/kg/injection, schedule: Q01DX009 (ip), vehicle: distilled water + Tween-80
[4] = dose: 400.0 mg/kg/injection, schedule: Q01DX009 (ip), vehicle: distilled water + Tween-80
[5] = dose: 12.5 mg/kg/injection, schedule: Q01DX009 (ip), vehicle: saline with Tween-80
[6] = dose: 100.0 mg/kg/injection, schedule: Q01DX009 (ip), vehicle: saline with Tween-80
[7] = dose: 25.0 mg/kg/injection, schedule: Q01DX009 (ip), vehicle: saline with Tween-80
[8] = dose: 50.0 mg/kg/injection, schedule: Q01DX009 (ip), vehicle: saline with Tween-80
[9] = dose: 200.0 mg/kg/injection, schedule: Q01DX009 (ip), vehicle: saline with Tween-80
[10] = dose: 50.0 mg/kg/injection, schedule: Q01DX009 (ip), vehicle: saline
[11] = dose: 200.0 mg/kg/injection, schedule: Q01DX009 (ip), vehicle: saline
[12] = dose: 60.0 mg/kg/injection, schedule: Q01DX005 (ip), vehicle: Klucel (hydroxypropylcellulose) (HPC)
[13] = dose: 120.0 mg/kg/injection, schedule: Q01DX005 (ip), vehicle: Klucel (hydroxypropylcellulose) (HPC)
[14] = dose: 240.0 mg/kg/injection, schedule: Q01DX005 (ip), vehicle: Klucel (hydroxypropylcellulose) (HPC)
[15] = dose: 25.0 mg/kg/injection, schedule: Q01DX005 (ip), vehicle: Klucel (hydroxypropylcellulose) (HPC)
[16] = dose: 50.0 mg/kg/injection, schedule: Q01DX005 (ip), vehicle: Klucel (hydroxypropylcellulose) (HPC)

Measured: T/C

O=S(=O)(F)c1ccc(O)cc1
inactive: dose: 15.0 mg/kg/injection, schedule: Q01DX005 (ip), vehicle: saline 96 % of control | dose: 30.0 mg/kg/injection, schedule: Q01DX005 (ip), vehicle: saline 99 % of control | dose: 60.0 mg/kg/injection, schedule: Q01DX005 (ip), vehicle: saline 99 % of control and 97 % of control

O=C(Oc1ccc[nH]c1=O)c1cccc(Cl)c1
inactive: [1] 100 % of control | [2] 100 % of control | [3] 95 % of control | dose: 200.0 mg/kg/injection, schedule: Q01DX009 (ip), vehicle: distilled water + Tween-80 99 % of control | [4] 97 % of control

CN(C)CCNc1ccc([N+](=O)[O-])c2sc3ccccc3c(=O)c12
inactive: [5] 114 % of control | [6] 103 % of control and 89 % of control

CCN(CC)CN1C(=O)C2C3C=CC(C2C1=O)C1C2C(=O)N(CN(CC)CC)C(=O)C2C31 (stereo not given)
inactive: [7] 103 % of control | [8] 102 % of control and 111 % of control | [6] 116 % of control and 117 % of control and 119 % of control | [9] 119 % of control | dose: 400.0 mg/kg/injection, schedule: Q01DX009 (ip), vehicle: saline with Tween-80 111 % of control

C/C=C/C1CC2CC(CC(O)CC)CN2O1 (stereo not given)
inactive: dose: 25.0 mg/kg/injection, schedule: Q01DX005 (ip), vehicle: saline with Tween-80 108 % of control | dose: 50.0 mg/kg/injection, schedule: Q01DX005 (ip), vehicle: saline with Tween-80 100 % of control | dose: 100.0 mg/kg/injection, schedule: Q01DX005 (ip), vehicle: saline with Tween-80 110 % of control

O=C1OCC(Cc2ccc3c(c2)OCO3)C1Cc1ccc2c(c1)OCO2 (stereo not given)
inactive: [10] 109 % of control | dose: 100.0 mg/kg/injection, schedule: Q01DX009 (ip), vehicle: saline 93 % of control | [11] 99 % of control

Nc1cc2ccncc2c2ccccc12
inactive: dose: 50.0 mg/kg/injection, schedule: Q04DX003 (ip), vehicle: saline sonified 100 % of control | dose: 100.0 mg/kg/injection, schedule: Q04DX003 (ip), vehicle: saline sonified 90 % of control | dose: 200.0 mg/kg/injection, schedule: Q04DX003 (ip), vehicle: saline sonified 95 % of control

BrCc1ccc2c(c1)CCC2
inactive: dose: 50.0 mg/kg/injection, schedule: Q01DX009 (ip), vehicle: distilled water + alcohol 106 % of control | dose: 100.0 mg/kg/injection, schedule: Q01DX009 (ip), vehicle: distilled water + alcohol 113 % of control | dose: 200.0 mg/kg/injection, schedule: Q01DX009 (ip), vehicle: distilled water + alcohol 97 % of control

O=[N+]([O-])c1cc2no[n+]([O-])c2cc1N1CCOCC1
inactive: dose: 3.75 mg/kg/injection, schedule: Q01DX009 (ip), vehicle: saline 112 % of control and 88 % of control | dose: 7.5 mg/kg/injection, schedule: Q01DX009 (ip), vehicle: saline 101 % of control and 92 % of control | dose: 15.0 mg/kg/injection, schedule: Q01DX009 (ip), vehicle: saline 91 % of control and 97 % of control | dose: 30.0 mg/kg/injection, schedule: Q01DX009 (ip), vehicle: saline 103 % of control and 96 % of control

C=C(C)c1nc(N)nc(-c2ccc([N+](=O)[O-])cc2)n1
inactive: dose: 100.0 mg/kg/injection, schedule: Q04DX002 (ip), vehicle: Klucel (hydroxypropylcellulose) (HPC) 88 % of control | dose: 200.0 mg/kg/injection, schedule: Q04DX002 (ip), vehicle: Klucel (hydroxypropylcellulose) (HPC) 88 % of control | dose: 400.0 mg/kg/injection, schedule: Q04DX002 (ip), vehicle: Klucel (hydroxypropylcellulose) (HPC) 88 % of control

CCCC(=O)O.CCCC(=O)O.CCCC(=O)O.CCCC(=O)O.O=P1(N(CCCl)CCCl)NCCCO1.O=P1(N(CCCl)CCCl)NCCCO1.[Rh].[Rh] (stereo not given)
inactive: dose: 0.13 mg/kg/injection, schedule: Q01DX009 (ip), vehicle: olive oil, sesame oil, peanut oil 103 % of control | dose: 0.25 mg/kg/injection, schedule: Q01DX009 (ip), vehicle: olive oil, sesame oil, peanut oil 112 % of control | dose: 0.5 mg/kg/injection, schedule: Q01DX009 (ip), vehicle: olive oil, sesame oil, peanut oil 101 % of control | dose: 1.0 mg/kg/injection, schedule: Q01DX009 (ip), vehicle: olive oil, sesame oil, peanut oil 117 % of control

CCOC(=O)C(Cc1ccc(O)c(C=O)c1)NC(C)=O (stereo not given)
inactive: [12] 96 % of control | [13] 97 % of control | [14] 98 % of control

COc1cc(C)c2c(OC)c(C)c(=O)oc2c1OC
inactive: dose: 6.25 mg/kg/injection, schedule: Q01DX005 (ip), vehicle: Klucel (hydroxypropylcellulose) (HPC) 105 % of control | dose: 12.5 mg/kg/injection, schedule: Q01DX005 (ip), vehicle: Klucel (hydroxypropylcellulose) (HPC) 100 % of control | [15] 97 % of control | [16] 104 % of control

O=[N+]([O-])c1cccc(NC(c2ccc(N(CCCl)CCCl)cc2)P(=O)(Oc2ccccc2)Oc2ccccc2)c1 (stereo not given)
inactive: dose: 50.0 mg/kg/injection, schedule: Q01DX009 (ip), vehicle: Klucel (hydroxypropylcellulose) (HPC) 95 % of control | dose: 100.0 mg/kg/injection, schedule: Q01DX009 (ip), vehicle: Klucel (hydroxypropylcellulose) (HPC) 98 % of control | dose: 200.0 mg/kg/injection, schedule: Q01DX009 (ip), vehicle: Klucel (hydroxypropylcellulose) (HPC) 95 % of control

O=C(NCc1ccccc1)Nc1cccc2c(NC(=O)NCc3ccccc3)cccc12
inactive: dose: 30.0 mg/kg/injection, schedule: Q01DX005 (ip), vehicle: saline with Tween-80 91 % of control | dose: 60.0 mg/kg/injection, schedule: Q01DX005 (ip), vehicle: saline with Tween-80 86 % of control and 89 % of control | dose: 120.0 mg/kg/injection, schedule: Q01DX005 (ip), vehicle: saline with Tween-80 86 % of control

CCCCn1ccnc1C
inactive: dose: 6.25 mg/kg/injection, schedule: Q01DX009 (ip), vehicle: saline 109 % of control | dose: 12.5 mg/kg/injection, schedule: Q01DX009 (ip), vehicle: saline 91 % of control | dose: 25.0 mg/kg/injection, schedule: Q01DX009 (ip), vehicle: saline 103 % of control

CCOC(=O)CCc1nc(C)ncc1C(=O)OCC
inactive: [5] 104 % of control | [7] 106 % of control | [8] 100 % of control | [10] 91 % of control | [11] 87 % of control

CCCCCCCCCCCCCCCCOc1ccccc1CNc1cc(C(F)(F)F)ccc1Cl
inactive: dose: 100.0 mg/kg/injection, schedule: Q04DX003 (ip), vehicle: other 95 % of control | dose: 200.0 mg/kg/injection, schedule: Q04DX003 (ip), vehicle: other 100 % of control | dose: 400.0 mg/kg/injection, schedule: Q04DX003 (ip), vehicle: other 90 % of control

CC(C)(C)OC(=O)NCCCCC(NC(=O)OCc1ccccc1)C(=O)O (stereo not given)
inactive: [15] 102 % of control | [16] 100 % of control | dose: 100.0 mg/kg/injection, schedule: Q01DX005 (ip), vehicle: Klucel (hydroxypropylcellulose) (HPC) 101 % of control

CCOC(=O)C1=C(C)N(C)C(C)=C(C(=O)OCC)C1c1ccc(Cl)cc1
inactive: [1] 99 % of control | [2] 97 % of control | [3] 89 % of control | [4] 98 % of control

CC(=O)/C(C=NC1CC(N=C/C(C(C)=O)=C(/C)O)CC(N=C/C(C(C)=O)=C(/C)O)C1)=C(/C)O (stereo not given)
inactive: [8] 101 % of control | [6] 101 % of control | [9] 93 % of control

O=C1CCC(C(=O)N(C(=O)NC2CCCCC2)C2CCCCC2)Cc2ccccc21 (stereo not given)
inactive: [12] 98 % of control | [13] 92 % of control | [14] 90 % of control
